Data published in patent US20050282743A1, “Molecular interactions in cells” (Arbor Vita Corporation, priority 2001, published 2005).
Peptide text beside a SMILES is read from it. * marks the point of attachment. Biotin = O=C1N[C@H]2[C@H](CS[C@H]2CCCCC(=O)*)N1

Assays:
Assay in all cases: G' assay (10 uM PL peptide), results of TABLE 7 and TABLE 12
Type in all cases: binding
[1] = biological target: T1, PDZ protein (GST-PDZ fusion) (Homo sapiens, UniProt Q96JH8); details: PDZ FLJ 10324, PDZ Domain 1
T1 construct: made in house; host or cells: E. coli (DH5alpha, BL21 or JM109)
T1 sequence (Q96JH8 1-1075): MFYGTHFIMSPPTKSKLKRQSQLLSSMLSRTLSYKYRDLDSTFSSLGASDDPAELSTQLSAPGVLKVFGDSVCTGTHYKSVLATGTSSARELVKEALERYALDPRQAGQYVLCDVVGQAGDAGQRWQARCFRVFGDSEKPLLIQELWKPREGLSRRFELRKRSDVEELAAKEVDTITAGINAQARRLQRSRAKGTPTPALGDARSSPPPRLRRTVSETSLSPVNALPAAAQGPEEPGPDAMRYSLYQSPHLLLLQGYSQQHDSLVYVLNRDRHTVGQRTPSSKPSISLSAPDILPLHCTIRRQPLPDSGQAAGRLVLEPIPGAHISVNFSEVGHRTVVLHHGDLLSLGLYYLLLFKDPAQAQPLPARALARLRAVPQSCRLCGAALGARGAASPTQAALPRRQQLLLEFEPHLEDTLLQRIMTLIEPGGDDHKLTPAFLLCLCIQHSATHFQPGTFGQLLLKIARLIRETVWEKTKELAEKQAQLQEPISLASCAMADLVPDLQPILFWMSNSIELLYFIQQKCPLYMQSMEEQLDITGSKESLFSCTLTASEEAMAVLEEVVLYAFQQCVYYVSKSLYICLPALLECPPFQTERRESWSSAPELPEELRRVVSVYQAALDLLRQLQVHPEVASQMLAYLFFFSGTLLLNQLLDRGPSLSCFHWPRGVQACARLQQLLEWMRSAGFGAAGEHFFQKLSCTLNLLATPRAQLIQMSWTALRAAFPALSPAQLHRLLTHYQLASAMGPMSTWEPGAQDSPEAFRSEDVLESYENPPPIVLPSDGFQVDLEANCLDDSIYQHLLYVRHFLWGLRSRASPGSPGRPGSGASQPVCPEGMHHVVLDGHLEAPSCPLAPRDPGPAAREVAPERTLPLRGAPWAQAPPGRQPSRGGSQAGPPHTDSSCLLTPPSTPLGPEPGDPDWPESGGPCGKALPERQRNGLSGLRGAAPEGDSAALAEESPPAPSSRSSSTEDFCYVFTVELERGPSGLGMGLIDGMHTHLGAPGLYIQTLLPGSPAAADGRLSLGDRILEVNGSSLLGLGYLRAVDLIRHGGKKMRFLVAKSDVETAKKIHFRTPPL
In short: (§1)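 Biotinylated PL peptides at 10 uM (vs 20 uM in G^0 assay) bound to GST-PDZ fusions; PDZ protein at 5 ug/ml unless another concentration listed. Bound peptide read as A450 nm, classified 0–5 (0 = A450 0; 5 = A450 >4 repeated).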

[2] = test system: PDZ protein (GST-PDZ fusion)
In short: as §1

[3] = biological target: T2, PDZ protein (GST-PDZ fusion) (Homo sapiens, UniProt Q02410); details: PDZ Mint 1, PDZ Domain 2
T2 construct: made in house; host or cells: E. coli (DH5alpha, BL21 or JM109)
T2 sequence (Q02410 1-837): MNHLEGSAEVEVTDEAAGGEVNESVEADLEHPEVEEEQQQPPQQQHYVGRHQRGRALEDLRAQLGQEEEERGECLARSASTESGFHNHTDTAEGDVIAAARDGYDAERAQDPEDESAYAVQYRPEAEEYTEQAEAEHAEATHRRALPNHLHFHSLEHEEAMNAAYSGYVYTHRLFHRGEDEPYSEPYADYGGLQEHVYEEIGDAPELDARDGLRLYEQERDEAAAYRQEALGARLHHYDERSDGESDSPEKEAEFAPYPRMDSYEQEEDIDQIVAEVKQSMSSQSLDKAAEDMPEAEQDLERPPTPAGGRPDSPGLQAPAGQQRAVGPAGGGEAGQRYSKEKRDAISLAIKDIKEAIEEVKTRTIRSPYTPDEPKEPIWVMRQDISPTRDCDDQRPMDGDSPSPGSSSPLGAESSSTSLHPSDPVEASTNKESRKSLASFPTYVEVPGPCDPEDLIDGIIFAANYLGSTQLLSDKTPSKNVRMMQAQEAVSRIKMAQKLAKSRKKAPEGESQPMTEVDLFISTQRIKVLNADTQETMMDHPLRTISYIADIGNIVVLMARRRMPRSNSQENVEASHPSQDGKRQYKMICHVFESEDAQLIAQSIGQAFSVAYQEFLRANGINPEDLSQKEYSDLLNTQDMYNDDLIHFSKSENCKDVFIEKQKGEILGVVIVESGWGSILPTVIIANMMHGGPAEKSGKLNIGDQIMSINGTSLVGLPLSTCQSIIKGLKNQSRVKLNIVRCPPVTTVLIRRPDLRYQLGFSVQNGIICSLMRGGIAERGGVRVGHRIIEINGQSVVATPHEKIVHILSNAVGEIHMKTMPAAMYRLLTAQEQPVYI
In short: as §1

What does the source list for CC(C)C[C@H](NC(=O)[C@H](C)NC(=O)[C@@H](NC(=O)[C@@H](NC(=O)[C@H](Cc1c[nH]cn1)NC(=O)[C@H](CC(C)C)NC(=O)CNC(=O)[C@H](CCC(N)=O)NC(=O)CNC(=O)CNC(=O)[C@H](C)NC(=O)[C@H](C)NC(=O)[C@H](CCCNC(=N)N)NC(=O)[C@H](C)NC(=O)[C@H](CO)NC(=O)[C@H](CC(=O)O)NC(=O)[C@H](CC(=O)O)NC(=O)[C@H](Cc1c[nH]c2ccccc12)NC(=O)[C@H](C)NC(=O)CCCC[C@@H]1SC[C@@H]2NC(=O)N[C@@H]21)C(C)C)[C@@H](C)O)C(=O)O [LPAP] (Biotin-AWDDSARAAGGQGLHVTAL-OH; C-terminus assumed)?
Classification [1]: 1 (A450 nm 0-1); Classification ([2]; PDZ BAI-1, PDZ Domain 2): 2 (A450 nm 1-2); Classification ([2]; PDZ FLJ 00011, PDZ Domain 1): 4 (A450 nm 3-4); Classification ([2]; PDZ HEMBA 1003117, PDZ Domain 1): 1 (A450 nm 0-1); Classification ([2]; PDZ SHANK, PDZ Domain 1): 3 (A450 nm 2-3); Classification ([2]; PDZ Unnamed Protein, PDZ Domain 2): 3 (A450 nm 2-3); Classification [3]: 1 (A450 nm 0-1)
